Like-named read-outs stand apart in the source and are kept apart here.
Assays:
[1] = clinical; settings: human, plasma, po, 0.25 mg
Experimental: (§1) An open-label, single-dose and multiple-dose, two-period, two-treatment single-sequence drug-drug interaction study was conducted. All subjects received Treatment A during Period 1 and Treatment B during Period 2.
(§2) Samples were stored in polypropylene tubes and kept frozen at approximately −20° C. prior to analysis. A 150-μL matrix aliquot was fortified with 20 μL of 40.0 ng/mL internal standard working solution. Analytes were isolated using an Isolute SLE+ (200-mg) supported liquid extraction 96-well plate and eluted with 800 μL of methylene chloride. The eluate was evaporated under a nitrogen stream at approximately 45° C., and the remaining residue was reconstituted with 250 μL of 90:10:40:0.7 water/methanol/acetonitrile/1.0 M ammonium acetate, v/v/v/v. The final extract was analyzed via HPLC with column-switching and MS/MS detection using positive ion electrospray. Extracts were analyzed by HPLC MS/MS using positive ion electrospray.

[2] = for Tmax, median: healthy subjects, 18
Experimental: as §1, §2

[3] = system: cytochrome P450; settings: cited from earlier work
[4] = target: β3-AR (Homo sapiens, UniProt P13945); settings: cell based in vitro assays; cited from earlier work
β3-AR, sequence (P13945 whole entry): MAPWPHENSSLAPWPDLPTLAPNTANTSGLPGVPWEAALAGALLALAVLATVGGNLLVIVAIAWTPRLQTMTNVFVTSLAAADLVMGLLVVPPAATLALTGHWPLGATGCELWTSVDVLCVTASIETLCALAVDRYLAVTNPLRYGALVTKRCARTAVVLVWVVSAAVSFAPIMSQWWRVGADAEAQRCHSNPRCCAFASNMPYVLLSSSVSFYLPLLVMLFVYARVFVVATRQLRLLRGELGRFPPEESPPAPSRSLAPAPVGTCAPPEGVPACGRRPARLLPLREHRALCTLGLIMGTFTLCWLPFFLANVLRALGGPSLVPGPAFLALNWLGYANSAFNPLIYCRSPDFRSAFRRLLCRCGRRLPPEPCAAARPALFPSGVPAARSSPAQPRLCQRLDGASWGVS

## C[C@H]1O[C@@H](O[C@H]2[C@@H](O)C[C@H](O[C@H]3[C@@H](O)C[C@H](O[C@H]4CC[C@@]5(C)[C@H](CC[C@@H]6[C@@H]5C[C@@H](O)[C@]5(C)[C@@H](C7=CC(=O)OC7)CC[C@]65O)C4)O[C@@H]3C)O[C@@H]2C)C[C@H](O)[C@@H]1O [Digoxin]
[1]
  AUC(0-inf): 17.2 ng·h/mL
  Cmax: 1.24 ng/mL
  half-life: 36.8 h
[2]; Digoxin 0.25 mg × 1 dose with vibegron (150 mg × 1 dose + 100 mg × 5 doses)
  Tmax, median: 1.00
[2]; Digoxin alone, 0.25 mg single dose oral tablet
  Tmax, median: 1.00
[2]; group receiving digoxin+vibegron compared to group receiving digoxin alone
  change of half-life (T1/2): increase

## O=C(Nc1ccc(C[C@@H]2CC[C@H]([C@H](O)c3ccccc3)N2)cc1)[C@@H]1CCc2nccc(=O)n21 [Vibegron, (6S)—N-[4-[[(2S,5R)-5-[(R)-hydroxy(phenyl)methyl]pyrrolidin-2-yl]methyl]phenyl]-4-oxo-7,8-dihydro-6H-pyrrolo[1,2-a]pyrimidine-6-carboxamide]
[3]
  inhibitor of major enzymes produced from the cytochrome P450 genes: not an inhibitor
[4]
  selectivity for activation of β3-AR over β2-AR and β1-AR: > 9,000 fold
